Experimental findings from patent US20230331673A1, “COMPOSITION OF COMPOUNDS THAT MODULATE CELL METABOLISM AND METHODS OF USE” (CRESCENTA BIOSCIENCES, priority 2020, published 2023) are described below.

For this experiment, the system named is differentiated 3T3-L1 mouse adipocyte cells. Kind of experiment: Adipocyte glucose consumption in differentiated 3T3-L1 mouse adipocyte cells (loss of glucose from medium, colorimetric). The experiment is classed as cell-based. To be noted: compound 10 μM, 22 to 24 hours, differentiated 3T3-L1 adipocytes, compound/DMSO, read-out: Glucose consumption (fold change) Mean. As for the experimental part:
Activity of compounds on adipocyte glucose consumption was tested in differentiated 3T3-L1 mouse adipocyte cells. 3T3-L1 preadipocytes (ATCC) were routinely cultured in a growth medium composed of DMEM high-glucose (Sigma), 10% FBS (Gibco), 10 U/ml penicillin and 10 μg/ml streptomycin (P/S; Gibco). To induce adipogenic differentiation, a confluent layer of 3T3-L1 cells were incubated with the growth medium containing 2 μM rosiglitazone, 1 μM dexamethasone, 500 μM IBMX, and 1 μg/ml insulin (Sigma). Forty-eight (48) hours later (on day 2) and on days 4 and 6, medium of the cells was replaced with fresh medium containing 1 μg/ml insulin. On days 8 and 10, the medium was refreshed with regular growth medium and addition of insulin was omitted. On day 11 or 12, medium of the cells were replaced with fresh medium containing either the indicated compounds (10 μM) or the vehicle in which the compounds were dissolved (DMSO). The final concentration of DMSO was 0.1% (v/v). Growth medium containing 0.1% DMSO was incubated in culture wells containing no cells and used as control. Twenty-two to 24 hours later, medium was harvested and subjected to centrifugation at 10,000 g for 5 min. Glucose concentration in the supernatants was determined using a colorimetric assay (Glucose Assay Kit I, Eton Biosciences). Glucose consumption in compound and vehicle treated cells was measured as loss of glucose from the culture medium and represented as mean fold change (compound/DMSO) t standard deviation (SD).
With `CCCCC1CCCc2c(n(Cc3cccc(C#N)c3)c3c(C(=O)O)cccc23)C1` (stereo not shown) [7-butyl-5-[(3-cyanophenyl)methyl]-5H,6H,7H,8H,9H,10H-cyclohepta[b]indole-4-carboxylic acid], the fold induction at 10 µM amounted to 1.29. For the compound `CCCCC1CCCc2c(n(Cc3cccc(C#N)c3)c3c(C(=O)NCCO)cccc23)C1` (stereo not shown) [7-butyl-5-[(3-cyanophenyl)methyl]-N-(2-hydroxyethyl)-5H,6H,7H,8H,9H,10H-cyclohepta[b]indole-4-carboxamide], the fold induction at 10 µM is 1.08. Turning to `CCCCC1CCCc2c(n(Cc3cccc(F)c3)c3c(C(=O)O)cccc23)C1` (stereo not shown) [7-butyl-5-[(3-fluorophenyl)methyl]-5H,6H,7H,8H,9H,10H-cyclohepta[b]indole-4-carboxylic acid], the fold induction at 10 µM was 1.12.

On to `CCCCC1CCCc2c(n(Cc3cccc(O)c3)c3c(C(=O)O)cccc23)C1` (stereo not shown) [7-butyl-5-[(3-hydroxyphenyl)methyl]-5H,6H,7H,8H,9H,10H-cyclohepta[b]indole-4-carboxylic acid], for which the fold induction at 10 µM is 1.14. In the case of `CCCCC1CCCc2c(n(Cc3cccc(OC)c3)c3c(C(=O)O)cccc23)C1` (stereo not shown) [7-butyl-5-[(3-methoxyphenyl)methyl]-5H,6H,7H,8H,9H,10H-cyclohepta[b]indole-4-carboxylic acid], the fold induction at 10 µM was 1.23. Regarding `CCCCC1CCCc2c(n(Cc3cccc(C)c3)c3c(C(=O)O)cccc23)C1` (stereo not shown) [7-butyl-5-[(3-methylphenyl)methyl]-5H,6H,7H,8H,9H,10H-cyclohepta[b]indole-4-carboxylic acid], the fold induction at 10 µM was 1.32. As for `CCCCC1CCCc2c(n(Cc3ccc(C(N)=O)cc3)c3c(C(=O)O)cccc23)C1` (stereo not shown) [7-butyl-5-[(4-carbamoylphenyl)methyl]-5H,6H,7H,8H,9H,10H-cyclohepta[b]indole-4-carboxylic acid], the fold induction at 10 µM is 1.13. Regarding `CCCCC1CCCc2c(n(Cc3ccc(C)cc3)c3c(C(=O)O)cccc23)C1` (stereo not shown) [7-butyl-5-[(4-methylphenyl)methyl]-5H,6H,7H,8H,9H,10H-cyclohepta[b]indole-4-carboxylic acid], the fold induction at 10 µM came to 1.27. Turning to `CCCCC1CCCc2c(n(Cc3cccnc3)c3c(C(=O)O)cccc23)C1` (stereo not shown) [7-butyl-5-[(pyridin-3-yl)methyl]-5H,6H,7H,8H,9H,10H-cyclohepta[b]indole-4-carboxylic acid], the fold induction at 10 µM is 1.21. `CCCCCCC1CCCc2c(n(Cc3ccnc(OC)c3)c3c(C(=O)O)cccc23)C1` (stereo not shown) [7-hexyl-5-[(2-methoxypyridin-4-yl)methyl]-5H,6H,7H,8H,9H,10H-cyclohepta[b]indole-4-carboxylic acid]: the fold induction at 10 µM was determined as 1.12. Then `CCCCCCC1CCCc2c(n(Cc3ccccc3C)c3c(C(=O)O)cccc23)C1` (stereo not shown) [7-hexyl-5-[(2-methylphenyl)methyl]-5H,6H,7H,8H,9H,10H-cyclohepta[b]indole-4-carboxylic acid], with 1; and `CCCCCCC1CCCc2c(n(Cc3cccc(C)c3)c3c(C(=O)O)cccc23)C1` (stereo not shown) [7-hexyl-5-[(3-methylphenyl)methyl]-5H,6H,7H,8H,9H,10H-cyclohepta[b]indole-4-carboxylic acid], with 1.13; and `CCCCCCC1CCCc2c(n(Cc3ccc(C)cc3)c3c(C(=O)O)cccc23)C1` (stereo not shown) [7-hexyl-5-[(4-methylphenyl)methyl]-5H,6H,7H,8H,9H,10H-cyclohepta[b]indole-4-carboxylic acid], with 1.05.

For the compound `CCCCCCC1CCCc2c(n(Cc3cccnc3)c3c(C(=O)O)cccc23)C1` (stereo not shown) [7-hexyl-5-[(pyridin-3-yl)methyl]-5H,6H,7H,8H,9H,10H-cyclohepta[b]indole-4-carboxylic acid], the fold induction at 10 µM was 1.14.

With `CCCCCCC1CCc2c(n(Cc3ccccc3C#N)c3c(C(=O)O)cccc23)C1` (stereo not shown) [9-[(2-cyanophenyl)methyl]-2-hexyl-2,3,4,9-tetrahydro-1H-carbazole-8-carboxylic acid], the fold induction at 10 µM stood at 1.13. Then `CCCCCCC1CCc2c(n(Cc3ccccc3F)c3c(C(=O)O)cccc23)C1` (stereo not shown) [9-[(2-fluorophenyl)methyl]-2-hexyl-2,3,4,9-tetrahydro-1H-carbazole-8-carboxylic acid], with 1.24; and `CCCCCOC1CCCc2c1n(Cc1cccc(C(N)=O)c1)c1c(C(=O)O)cccc21` (stereo not shown) [9-[(3-carbamoylphenyl)methyl]-1-(pentyloxy)-2,3,4,9-tetrahydro-1H-carbazole-8-carboxylic acid], with 1.09; and `CCC1CCCc2c1n(Cc1cccc(C(N)=O)c1)c1c(C(=O)O)cccc21` (stereo not shown) [9-[(3-carbamoylphenyl)methyl]-1-ethyl-2,3,4,9-tetrahydro-1H-carbazole-8-carboxylic acid], with 0.94. Then `CCCOC1CCCc2c1n(Cc1cccc(C(N)=O)c1)c1c(C(=O)O)cccc21` (stereo not shown) [9-[(3-carbamoylphenyl)methyl]-1-propoxy-2,3,4,9-tetrahydro-1H-carbazole-8-carboxylic acid], with 1.03; and `CCC1CCc2c(n(Cc3cccc(C(N)=O)c3)c3c(C(=O)O)cccc23)C1` (stereo not shown) [9-[(3-carbamoylphenyl)methyl]-2-ethyl-2,3,4,9-tetrahydro-1H-carbazole-8-carboxylic acid], with 1.06; and `CCCCCCC1CCc2c(n(Cc3cccc(C(N)=O)c3)c3c(C(=O)O)cccc23)C1` (stereo not shown) [9-[(3-carbamoylphenyl)methyl]-2-hexyl-2,3,4,9-tetrahydro-1H-carbazole-8-carboxylic acid], with 1.13. For the compound `CCCCCC1CCc2c(n(Cc3cccc(C(N)=O)c3)c3c(C(=O)O)cccc23)C1` (stereo not shown) [9-[(3-carbamoylphenyl)methyl]-2-pentyl-2,3,4,9-tetrahydro-1H-carbazole-8-carboxylic acid], the fold induction at 10 µM worked out at 1.13. For `CCCC1CCc2c(n(Cc3cccc(C(N)=O)c3)c3c(C(=O)O)cccc23)C1` (stereo not shown) [9-[(3-carbamoylphenyl)methyl]-2-propyl-2,3,4,9-tetrahydro-1H-carbazole-8-carboxylic acid], the fold induction at 10 µM was 1.09. Consider `CCC1CCc2c(c3cccc(C(=O)O)c3n2Cc2cccc(C(N)=O)c2)C1` (stereo not shown) [9-[(3-carbamoylphenyl)methyl]-3-ethyl-2,3,4,9-tetrahydro-1H-carbazole-8-carboxylic acid], for which the fold induction at 10 µM was determined as 1.1. Consider `CCCCCC1CCc2c(c3cccc(C(=O)O)c3n2Cc2cccc(C(N)=O)c2)C1` (stereo not shown) [9-[(3-carbamoylphenyl)methyl]-3-pentyl-2,3,4,9-tetrahydro-1H-carbazole-8-carboxylic acid], for which the fold induction at 10 µM amounted to 1.08. `CCCC1CCc2c(c3cccc(C(=O)O)c3n2Cc2cccc(C(N)=O)c2)C1` (stereo not shown) [9-[(3-carbamoylphenyl)methyl]-3-propyl-2,3,4,9-tetrahydro-1H-carbazole-8-carboxylic acid]: the fold induction at 10 µM stood at 1.1.

As for `CCC1CCCc2c1c1cccc(C(=O)O)c1n2Cc1cccc(C(N)=O)c1` (stereo not shown) [9-[(3-carbamoylphenyl)methyl]-4-ethyl-2,3,4,9-tetrahydro-1H-carbazole-8-carboxylic acid], the fold induction at 10 µM is 1.21.

As to `CCCCCC1CCCc2c1c1cccc(C(=O)O)c1n2Cc1cccc(C(N)=O)c1` (stereo not shown) [9-[(3-carbamoylphenyl)methyl]-4-pentyl-2,3,4,9-tetrahydro-1H-carbazole-8-carboxylic acid], the fold induction at 10 µM is 1.12.
